From article PMC6934184, “Selective DNA-PKcs inhibition extends the therapeutic index of localized radiotherapy and chemotherapy” (The Journal of Clinical Investigation, 2019) come the findings set out here.

Each structure is given as a SMILES string.

The assay deals with MCF7 cells. Put plainly: γH2AX foci nuclear fluorescence after 2.5 Gy. Format: cell-based, Human. Particulars: 1 μM, 0–24 hours after irradiation. The procedure: Cell line γH2AX and 53BP1 foci immunofluorescence and quantitation
Cells grown on coverslips or in 96-well plates were treated with 1 or 5 µM NU5455 or DMSO 1 hour prior to irradiation (0, 2.5 or 10 Gy) using an RS 320 X-ray Research System (Gulmay Medical). At set timepoints (15 or 30 minutes, or 1, 4, 5, 6, or 24 hours post-irradiation), cells were washed and fixed in methanol or 3% paraformaldehyde (PFA). Cells were blocked and permeabilized in 1% (v/v) goat serum/1% (w/v) BSA/0.1% (v/v) Triton X100 or 0.1% (v/v) Triton X100 containing 10% (w/v) dried milk powder and 2% (w/v) bovine serum albumin, followed by incubation with antibodies against γH2AX (JBW301, Millipore #05-636) and/or 53BP1 (Cell Signaling #4937). Cells were then washed and incubated with Alexa Fluor 488 goat anti-mouse and/or Alexa Fluor 568 goat anti -rabbit antibodies (A11001 or A11011 respectively, Invitrogen). In A549 and Calu-6, cells were Hoechst stained (5 µg/ml), and the average numbers of γH2AX and 53BP1 foci per cell were quantified from 400 nuclei per sample using an In Cell analyzer 1000 (GE Healthcare). For MCF7 cells, coverslips were mounted using Vectashield mounting medium with DAPI (Vector Labs) and imaged using a Leica TCS SPE confocal fluorescence microscope. Total fluorescence intensity was determined using ImagePro Plus 5.0 software (Media Cybernetics).
Clonogenic survival assays […]

With `CN(C(=O)CN1CCOCC1)c1ccc2sc3c(-c4cccc5c(=O)cc(N6CC7CCC(C6)O7)oc45)cccc3c2c1` [NU5455], the “number of γH2AX foci” value is recorded as “remained elevated even at 24 hours”.
